Drawing on ChEMBL document CHEMBL1131377, “Novel 5-(3-aryl-2-propynyl)-5-(arylsulfonyl)thiazolidine-2,4-diones as antihyperglycemic agents” (1998), this text covers Decrease for 57 compounds.

Format in all cases: functional
Assay [1] deals with Mus musculus. As to the kind of experiment: Percent decrease in glucose of db/db mouse was measured at 100 mg/kg/day dosage.
The subject of assay [2] is Mus musculus. As to the kind of experiment: Percent decrease in glucose of db/db mouse was measured at 20 mg/kg/day dosage.
The test system of assay [3] is Mus musculus. As to the kind of experiment: % decrease in insulin of 4 day ob/ob mouse was measured at 50 mg/kg/day dosage.
Assay [4] relates to Mus musculus. As to the kind of experiment: % decrease in glucose of 4 day ob/ob mouse was measured at 50 mg/kg/day dosage.
The test system of assay [5] is Mus musculus. As to the kind of experiment: % decrease in glucose of 4 day ob/ob mouse was measured at 100 mg/kg/day dosage.
Assay [6] has as its system Mus musculus. As to the kind of experiment: % decrease in insulin of 4 day ob/ob mouse was measured at 100 mg/kg/day dosage.

Each structure is given as a SMILES string.

`Cc1ccc(C#CCC2(S(=O)(=O)c3ccccc3)SC(=O)NC2=O)cc1` (configuration not stated): the Decrease with Mus musculus [1] is on record as less than 15%. Consider `O=C1NC(=O)C(CC#Cc2ccc(F)cc2)(S(=O)(=O)c2ccc(F)cc2)S1` (configuration not stated), for which the results for the Decrease in the assay with Mus musculus [1] and with Mus musculus [2] were 57% and 25%, respectively.

With `O=C1NC(=O)C(CC#Cc2ccc(Br)cc2)(S(=O)(=O)c2ccc(F)cc2)S1` (configuration not stated), the values for the Decrease in the assay on Mus musculus [1] and with Mus musculus [2] were 70% and less than 15%, respectively. Turning to `Cc1ccc(S(=O)(=O)C2(CC#Cc3ccc(C(F)(F)F)cc3)SC(=O)NC2=O)cc1` (configuration not stated), the results for the Decrease in the assay with Mus musculus [1] and in the assay with Mus musculus [2] were 36% and less than 15%, respectively. In the assay on Mus musculus [1], `Cc1ccc(SC2(CC#Cc3ccc(Cl)cc3)SC(=O)NC2=O)cc1` (configuration not stated) showed a Decrease of 27%. In the assay on Mus musculus [1], `O=C1NC(=O)C(CC#Cc2ccc(Cl)cc2)(S(=O)(=O)c2ccc3ccccc3c2)S1` (configuration not stated) came in with a Decrease of 20%. Same read-out and setting: to `O=C1NC(=O)C(CC#Cc2ccc(Cl)cc2)(Sc2ccccn2)S1` (configuration not stated) belongs less than 15%. `O=C1NC(=O)C(CC#Cc2ccc(C(F)(F)F)cc2)(S(=O)(=O)c2ccc(F)cc2)S1` (configuration not stated): the values for the Decrease in the assay on Mus musculus [1] and in the assay with Mus musculus [2] were 52% and less than 15%, respectively. As to `O=C1NC(=O)C(CC#Cc2ccc(Br)cc2)(S(=O)(=O)c2ccccc2)S1` (configuration not stated), the Decrease in the assay with Mus musculus [1] was 53%; in the assay with Mus musculus [2], less than 15%. As for `O=C1NC(=O)C(CC#Cc2ccc(F)cc2)(S(=O)(=O)c2ccccc2)S1` (configuration not stated), the Decrease in the assay with Mus musculus [1] is given as 58%; with Mus musculus [2], less than 15%. For `O=C1NC(=O)C(CC#Cc2ccccc2)(S(=O)(=O)c2ccc(Br)cc2)S1` (configuration not stated), the Decrease in the assay on Mus musculus [1] is recorded as 43%; with Mus musculus [2], less than 15%.

Compound `O=C1NC(=O)C(CC#Cc2ccc(Cl)cc2)(Sc2ccc3ccccc3n2)S1` (configuration not stated) returned a Decrease in the assay with Mus musculus [1] of less than 15%. For the compound `Cc1ccc(S(=O)(=O)C2(CC#Cc3ccccc3)SC(=O)NC2=O)cc1` (configuration not stated), the values for the Decrease in the assay on Mus musculus [1] and in the assay with Mus musculus [2] were 43% and 23%, respectively. On to `CSc1ccc(C#CCC2(S(=O)(=O)c3ccc(F)cc3)SC(=O)NC2=O)cc1` (configuration not stated), for which the Decrease with Mus musculus [1] was less than 15%.

For `Cc1ccc(S(=O)(=O)C2(CC#Cc3ccc(Br)cc3)SC(=O)NC2=O)cc1` (configuration not stated), the Decrease in the assay with Mus musculus [1] came to 51%; in the assay with Mus musculus [2] it was 23%. Take `O=C1NC(=O)C(CC#Cc2ccccc2)(S(=O)(=O)c2ccc(F)cc2)S1` (configuration not stated): the Decrease with Mus musculus [1] was determined as 26%.

As to `O=C1NC(=O)C(CC#Cc2cc(C(F)(F)F)cc(C(F)(F)F)c2)(S(=O)(=O)c2ccccn2)S1` (configuration not stated), the Decrease in the assay with Mus musculus [2] is less than 15%. Turning to `O=C1NC(=O)C(CC#Cc2ccc(Cl)cc2)(S(=O)(=O)c2ccccn2)S1` (configuration not stated), the Decrease with Mus musculus [1] was found to be 55%; in the assay with Mus musculus [2], 38%. As for `O=C1NC(=O)C(CC#Cc2ccccc2)(S(=O)(=O)c2ccc(Cl)cc2)S1` (configuration not stated), in the assay with Mus musculus [1], the Decrease amounted to 36%. The compound `COc1ccc(S(=O)(=O)C2(CC#Cc3ccccc3)SC(=O)NC2=O)cc1` (configuration not stated) displayed a Decrease in the assay on Mus musculus [1] of 21%. In the assay on Mus musculus [1], `COc1ccc(C#CCC2(S(=O)(=O)c3ccc(C)cc3)SC(=O)NC2=O)cc1` (configuration not stated) had a Decrease of less than 15%.

On to `O=C1NC(=O)C(CC#Cc2ccc(F)c(F)c2)(S(=O)(=O)c2ccc(F)cc2)S1` (configuration not stated), for which the Decrease in the assay on Mus musculus [1] is 33%. For `O=C1NC(=O)C(CC#Cc2cccc(Cl)c2)(S(=O)(=O)c2ccccc2)S1` (configuration not stated), the Decrease with Mus musculus [1] is less than 15%.

Turning to `O=C1NC(=O)C(CC#Cc2ccc(Cl)cc2)(S(=O)(=O)c2ccc(F)cc2)S1` (configuration not stated), the Decrease in the assay with Mus musculus [1] is 79%; in the assay with Mus musculus [2], 31%. Consider `Cc1ccc(S(=O)(=O)C2(CC#Cc3ccc(F)cc3)SC(=O)NC2=O)cc1` (configuration not stated), for which the Decrease is recorded as 65% with Mus musculus [1], 30% with Mus musculus [3], 30% in the assay on Mus musculus [4] and less than 15% in the assay with Mus musculus [2]. With `O=C1NC(=O)C(CC#Cc2ccccc2Cl)(S(=O)(=O)c2ccccc2)S1` (configuration not stated), the Decrease in the assay with Mus musculus [1] was less than 15%. Consider `O=C1NC(=O)C(CC#Cc2ccc(Cl)cc2)(Sc2ccc(Cl)cc2)S1` (configuration not stated), for which the Decrease in the assay on Mus musculus [1] amounted to 24%.

Take `O=C1NC(=O)C(CC#Cc2ccc(Br)cc2)(S(=O)(=O)c2ccc(Cl)cc2)S1` (configuration not stated): the Decrease with Mus musculus [1] is reported as 68%; with Mus musculus [2], less than 15%. With `Cc1ccc(S(=O)(=O)C2(CC#Cc3ccccc3Cl)SC(=O)NC2=O)cc1` (configuration not stated), the Decrease with Mus musculus [1] turned out to be 30%.

Regarding `O=C1NC(=O)C(CC#Cc2cc(C(F)(F)F)cc(C(F)(F)F)c2)(S(=O)(=O)c2ccccc2)S1` (configuration not stated), the Decrease stood at 54% in the assay on Mus musculus [1] and 21% with Mus musculus [2]. Turning to `CC1(COc2ccc(CC3SC(=O)NC3=O)cc2)CCCCC1` (configuration not stated) [CIGLITAZONE], the Decrease with Mus musculus [1] is given as 32%; in the assay with Mus musculus [5] it was 43%; in the assay with Mus musculus [6] it was 39%; with Mus musculus [2], less than 15%. As for `Cc1ccc(S(=O)(=O)C(CC#Cc2ccc(Cl)cc2)C(=O)O)cc1` (configuration not stated) [TIBEGLISENE], the results for the Decrease in the assay with Mus musculus [1], in the assay with Mus musculus [3] and in the assay on Mus musculus [4] were 30%, 54% and less than 15%, respectively. `O=C1NC(=O)C(CC#Cc2ccccc2)(S(=O)(=O)c2ccc3ccccc3c2)S1` (configuration not stated): the Decrease in the assay with Mus musculus [1] stood at 24%. In the assay with Mus musculus [1], `Cc1ccc(S(=O)(=O)C2(CC#Cc3cccc(Cl)c3)SC(=O)NC2=O)cc1` (configuration not stated) returned a Decrease of 30%.

Turning to `O=C1NC(=O)C(CC#Cc2ccc(F)cc2)(S(=O)(=O)c2ccc(Br)cc2)S1` (configuration not stated), the Decrease in the assay with Mus musculus [1] is on record as 64%; in the assay with Mus musculus [2], less than 15%. Regarding `O=C1NC(=O)C(CC#Cc2ccc(Cl)cc2)(S(=O)(=O)c2ccc(Br)cc2)S1` (configuration not stated), the Decrease is listed as 69% in the assay with Mus musculus [1], 69% with Mus musculus [3], 36% in the assay with Mus musculus [4] and less than 15% in the assay on Mus musculus [2]. `O=C1NC(=O)C(CC#Cc2ccc(Cl)cc2)(S(=O)(=O)c2ccc3ccccc3n2)S1` (configuration not stated) yielded a Decrease in the assay on Mus musculus [2] of less than 15%. For the compound `O=C1NC(=O)C(CC#Cc2ccc(OC(F)(F)F)cc2)(S(=O)(=O)c2ccc(F)cc2)S1` (configuration not stated), the values for the Decrease with Mus musculus [1] and in the assay on Mus musculus [2] were 56% and less than 15%, respectively.

Regarding `Cc1cccc(S(=O)(=O)C2(CC#Cc3ccccc3)SC(=O)NC2=O)c1` (configuration not stated), the Decrease in the assay with Mus musculus [1] is 48%; with Mus musculus [2] it was less than 15%.

In the assay on Mus musculus [1], `Cc1cccc(S(=O)(=O)C2(CC#Cc3ccc(Cl)cc3)SC(=O)NC2=O)c1` (configuration not stated) showed a Decrease of 33%. Regarding `Cc1ccc(C#CCC2(S(=O)(=O)c3ccc(C)cc3)SC(=O)NC2=O)cc1` (configuration not stated), in the assay on Mus musculus [1], the Decrease turned out to be 28%. `COc1ccc(S(=O)(=O)C2(CC#Cc3ccc(Cl)cc3)SC(=O)NC2=O)cc1` (configuration not stated): the Decrease was 45% in the assay with Mus musculus [1] and less than 15% in the assay on Mus musculus [2]. `O=C1NC(=O)C(CC#Cc2ccc(Cl)cc2)(Sc2ccc(F)cc2)S1` (configuration not stated) showed a Decrease with Mus musculus [1] of less than 15%. In the case of `O=C1NC(=O)C(CC#Cc2ccc(Cl)cc2)(S(=O)(=O)c2ccc(Cl)cc2)S1` (configuration not stated), the Decrease amounted to 70% in the assay with Mus musculus [1], 56% in the assay with Mus musculus [3], 47% in the assay on Mus musculus [4] and 18% with Mus musculus [2]. With `COc1ccc(C#CCC2(S(=O)(=O)c3ccccc3)SC(=O)NC2=O)cc1` (configuration not stated), the Decrease with Mus musculus [1] came to 25%.

`O=C1NC(=O)C(S(=O)(=O)c2ccc3ccccc3c2)S1` (configuration not stated) showed a Decrease with Mus musculus [1] of 21%. For `O=C1NC(=O)C(CC#Cc2ccccc2)(S(=O)(=O)c2ccccc2)S1` (configuration not stated), in the assay on Mus musculus [1], the Decrease is given as less than 15%. For `Cc1cccc(SC2(CC#Cc3ccc(Cl)cc3)SC(=O)NC2=O)n1` (configuration not stated), the Decrease with Mus musculus [1] is given as less than 15%. As to `O=C1NC(=O)C(CC#Cc2ccc(Cl)cc2)(S(=O)(=O)c2ccccc2)S1` (configuration not stated), the Decrease with Mus musculus [1] was found to be 52%; with Mus musculus [5], 40%; with Mus musculus [6], 65%; with Mus musculus [2], 21%. Compound `O=C1NC(=O)C(CC#Cc2ccc(C(F)(F)F)cc2)(S(=O)(=O)c2ccc(Cl)cc2)S1` (configuration not stated) displayed a Decrease with Mus musculus [1] of 37%.

Turning to `O=C1NC(=O)C(CC#Cc2ccc(F)cc2)(S(=O)(=O)c2ccccn2)S1` (configuration not stated), the Decrease with Mus musculus [1] was determined as 67%; in the assay on Mus musculus [3], 54%; with Mus musculus [4] it was 44%; in the assay with Mus musculus [2] it was 36%. For the compound `O=C1NC(=O)C(CC#Cc2ccc(C(F)(F)F)cc2)(S(=O)(=O)c2ccccc2)S1` (configuration not stated), the results for the Decrease with Mus musculus [1] and in the assay with Mus musculus [2] were 59% and less than 15%, respectively.

`Cc1ccc(S(=O)(=O)C2(CC#Cc3ccc(Cl)cc3)SC(=O)NC2=O)cc1` (configuration not stated) registered a Decrease in the assay on Mus musculus [1] of 35%. Take `O=C1NC(=O)C(CC#Cc2ccc(F)cc2)(S(=O)(=O)c2ccc(Cl)cc2)S1` (configuration not stated): the results for the Decrease in the assay on Mus musculus [1] and in the assay with Mus musculus [2] were 54% and less than 15%, respectively. In the case of `Cc1cccc(S(=O)(=O)C2(CC#Cc3ccc(Cl)cc3)SC(=O)NC2=O)n1` (configuration not stated), the Decrease in the assay with Mus musculus [1] and with Mus musculus [2] was less than 15% each time. On to `O=C1NC(=O)C(CC#Cc2ccc(Cl)cc2)(Sc2ccccc2)S1` (configuration not stated), for which the Decrease in the assay with Mus musculus [1] was less than 15%.

Compound `Cc1ccc(S(=O)(=O)C2(CC#Cc3cc(C(F)(F)F)cc(C(F)(F)F)c3)SC(=O)NC2=O)cc1` (configuration not stated) displayed a Decrease in the assay on Mus musculus [1] of 22%.
